The supplement of paper PMC4862054

Key:
Conditions in all cases: incubation time: 72 h
MDA-MB-231 [1] = test: normalised response (% of control), CellTox Green; higher = less cell death (100 = DMSO, 0 = benzethonium chloride kill control)
Procedure, shortened: (§1)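 Each value is the plate-normalised signal at one concentration of the series. Breast cancer cell lines (20 µl suspension) were incubated 72 h in 384-well plates with compound at 5 concentrations in 10-fold steps over a compound-specific 10,000-fold range. CellTox Green and then CellTiter-Glo were read, and each plate was scaled to 0.1 % DMSO (100) and a positive kill control (0).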

CAL-120 [2] = test: as above
Procedure, shortened: as §1

MDA-MB-468 [3] = test: as above
Procedure, shortened: as §1

MDA-MB-436 [4] = test: as above
Procedure, shortened: as §1

CAL-148 [5] = test: as above
Procedure, shortened: as §1

MCF-10A [6] = test: as above
Procedure, shortened: as §1

BT-549 [7] = test: as above
Procedure, shortened: as §1

HCC1937 [8] = test: as above
Procedure, shortened: as §1

HCC1599 [9] = test: as above
Procedure, shortened: as §1

MDA-MB-453 [10] = test: as above
Procedure, shortened: as §1

CAL-51 [11] = test: as above
Procedure, shortened: as §1

Hs578T [12] = test: as above
Procedure, shortened: as §1

DU-4475 [13] = test: as above
Procedure, shortened: as §1

BT-474 [14] = test: as above
Procedure, shortened: as §1

HDQ-P1 [15] = test: as above
Procedure, shortened: as §1

CAL-85-1 [16] = test: as above
Procedure, shortened: as §1

HCC1143 [17] = test: as above
Procedure, shortened: as §1

MDA-MB-231 [18] = test: normalised response (% of control), CellTiter-Glo; higher = more viable cells (100 = DMSO, 0 = benzethonium chloride kill control)
Procedure, shortened: as §1

CAL-120 [19] = test: as above
Procedure, shortened: as §1

MDA-MB-468 [20] = test: as above
Procedure, shortened: as §1

MDA-MB-436 [21] = test: as above
Procedure, shortened: as §1

CAL-148 [22] = test: as above
Procedure, shortened: as §1

MCF-10A [23] = test: as above
Procedure, shortened: as §1

BT-549 [24] = test: as above
Procedure, shortened: as §1

HCC1937 [25] = test: as above
Procedure, shortened: as §1

HCC1599 [26] = test: as above
Procedure, shortened: as §1

MDA-MB-453 [27] = test: as above
Procedure, shortened: as §1

CAL-51 [28] = test: as above
Procedure, shortened: as §1

SK-BR-3 = test: as above
Procedure, shortened: as §1

Hs578T [29] = test: as above
Procedure, shortened: as §1

DU-4475 [30] = test: as above
Procedure, shortened: as §1

BT-474 [31] = test: as above
Procedure, shortened: as §1

HDQ-P1 [32] = test: as above
Procedure, shortened: as §1

CAL-85-1 [33] = test: as above
Procedure, shortened: as §1

MFM-223 [34] = test: as above
Procedure, shortened: as §1

HCC1143 [35] = test: as above
Procedure, shortened: as §1

MFM-223 [36] = test: normalised response (% of control), CellTox Green; higher = less cell death (100 = DMSO, 0 = benzethonium chloride kill control)
Procedure, shortened: as §1

| SMILES | normalised response (MDA-MB-231 [1]) [%] | normalised response (CAL-120 [2]) [%] | normalised response (MDA-MB-468 [3]) [%] | normalised response (MDA-MB-436 [4]) [%] | normalised response (CAL-148 [5]) [%] | normalised response (MCF-10A [6]) [%] | normalised response (BT-549 [7]) [%] | normalised response (HCC1937 [8]) [%] | normalised response (HCC1599 [9]) [%] | normalised response (MDA-MB-453 [10]) [%] | normalised response (CAL-51 [11]) [%] | normalised response (Hs578T [12]) [%] | normalised response (DU-4475 [13]) [%] | normalised response (BT-474 [14]) [%] | normalised response (HDQ-P1 [15]) [%] | normalised response (CAL-85-1 [16]) [%] | normalised response (HCC1143 [17]) [%] | normalised response (MDA-MB-231 [18]) [%] | normalised response (CAL-120 [19]) [%] | normalised response (MDA-MB-468 [20]) [%] | normalised response (MDA-MB-436 [21]) [%] | normalised response (CAL-148 [22]) [%] | normalised response (MCF-10A [23]) [%] | normalised response (BT-549 [24]) [%] | normalised response (HCC1937 [25]) [%] | normalised response (HCC1599 [26]) [%] | normalised response (MDA-MB-453 [27]) [%] | normalised response (CAL-51 [28]) [%] | normalised response (SK-BR-3) [%] | normalised response (Hs578T [29]) [%] | normalised response (DU-4475 [30]) [%] | normalised response (BT-474 [31]) [%] | normalised response (HDQ-P1 [32]) [%] | normalised response (CAL-85-1 [33]) [%] | normalised response (MFM-223 [34]) [%] | normalised response (HCC1143 [35]) [%] | normalised response (MFM-223 [36]) [%] |
| --- | --- | --- | --- | --- | --- | --- | --- | --- | --- | --- | --- | --- | --- | --- | --- | --- | --- | --- | --- | --- | --- | --- | --- | --- | --- | --- | --- | --- | --- | --- | --- | --- | --- | --- | --- | --- | --- |
| COc1cc(O)c2c(c1)/C=C/C[C@H](O)[C@H](O)C(=O)/C=C\C[C@H](C)OC2=O [(5Z)-7-Oxozeaenol] (1000 nM) | 57.4 | 102 | 140 | 112 | 15.5 | 103 | 79.5 | -12.2 | 103 | 103 | 115 | 64.6 | 74.4 | 99 | 66.1 | 35.6 | 129 | 72 | 94.2 | 56.5 | 81.3 | 79.5 | 56.9 | 40.3 | 76.1 | 92 | 118 | 106 | 115 | 91.1 | 8.27 | 71.5 | 71.5 | 42.8 | 90.4 | 96.9 |  |
| CNC(=O)c1ccc(N2C(=S)N(c3ccc(C#N)c(C(F)(F)F)c3)C(=O)C2(C)C)cc1F [Enzalutamide] (1000 nM) | 90.5 | 104 | 131 | 89.5 | 65.4 | 107 | 87 |  | 90.2 | 111 | 93.4 | 96.4 | 107 | 96 | 54.2 | 105 | 117 | 95.7 | 95.9 | 92.6 | 92.8 | 104 | 107 | 96.8 | 96.8 | 107 | 95.7 | 74.1 | 100 | 106 | 103 | 102 | 95.9 | 91.7 | 97.7 | 101 |  |
| COC(=O)c1ccc2c(c1)NC(=O)/C2=C(\Nc1ccc(N(C)C(=O)CN2CCN(C)CC2)cc1)c1ccccc1 [Nintedanib] (1000 nM) | 102 | 101 | 162 | 107 |  | 105 | 111 | 80.7 | 98.1 | 103 | 105 | 94.1 | 98.5 | 97.9 | 96 | 107 |  | 92 | 85.2 | 96.8 | 99.4 | 94.6 | 59.3 | 83.5 | 89.4 | 98.9 | 96.2 | 83.2 | 86 | 93.4 | 87.6 | 101 | 69.1 | 97.2 | 59.2 | 98.8 | 89.4 |
| CNC(=O)c1ccc(N2C(=S)N(c3ccc(C#N)c(C(F)(F)F)c3)C(=O)C23CCC3)cc1F [RD162] (1000 nM) | 108 | 101 | 96.5 | 111 | 102 | 120 | 101 | 83.1 | 96 | 90.8 | 107 | 85.7 | 104 | 96.8 | 114 | 118 |  | 101 | 99 | 97.3 | 98.2 | 103 | 102 | 93.7 | 94.6 | 126 | 98.9 | 115 | 110 | 104 | 103 | 95.3 | 94.9 | 96.7 | 102 | 98 |  |
